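Values below derive from 48-hour exposures of cells grown in 96-well plates, with endpoints linearly interpolated between the two concentrations bracketing the appropriate inhibition level. GI50 marks 50% less growth. TGI denotes the concentration required for complete inhibition of growth.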
Columns and labels:
Test in all cases: NCI-60 cell line screen, 48 h
[1] = tested on: MOLT-4 leukemia
[2] = tested on: HS 578T breast
[3] = tested on: HCC-2998 colon
[4] = tested on: UO-31 renal
[5] = tested on: HT29 colon
[6] = tested on: HL-60(TB) leukemia
[7] = tested on: OVCAR-4 ovarian
[8] = tested on: MDA-MB-435
[9] = tested on: PC-3 prostate
[10] = tested on: NCI-H226 lung
[11] = tested on: BT-549 breast
[12] = tested on: NCI-H460 lung
[13] = tested on: U251 CNS
[14] = tested on: NCI/ADR-RES ovarian
[15] = tested on: HCT-15 colon
[16] = tested on: RXF 393 renal
[17] = tested on: SK-OV-3 ovarian
[18] = tested on: HCT-116 colon
[19] = tested on: A549 NSCLC
[20] = tested on: NCI-H23 lung
[21] = tested on: SK-MEL-5 melanoma
[22] = tested on: NCI-H522 lung
[23] = tested on: ACHN renal
[24] = tested on: CAKI-1 renal
[25] = tested on: SR leukemia
[26] = tested on: TK-10 renal
[27] = tested on: OVCAR-3 ovarian
[28] = tested on: CCRF-CEM leukemia
[29] = tested on: HOP-62 NSCLC
[30] = tested on: MALME-3M melanoma
[31] = tested on: KM12 colon
[32] = tested on: SK-MEL-28 melanoma
[33] = tested on: MDA-MB-231 breast
[34] = tested on: M14 melanoma
[35] = tested on: SN12C renal
[36] = tested on: 786-0 renal
[37] = tested on: SW-620 colon
[38] = tested on: SF-268 CNS
[39] = tested on: LOX IMVI melanoma
[40] = tested on: IGROV1 ovarian
[41] = tested on: UACC-62 melanoma
[42] = tested on: SNB-75 CNS
[43] = tested on: SK-MEL-2 melanoma
[44] = tested on: OVCAR-8 ovarian
[45] = tested on: SF-539 CNS
[46] = tested on: T-47D breast
[47] = tested on: RPMI-8226 leukemia
[48] = tested on: COLO 205 colon
[49] = tested on: EKVX NSCLC
[50] = tested on: SF-295 CNS
[51] = tested on: SNB-19 CNS
[52] = tested on: UACC-257 melanoma
[53] = tested on: HOP-92 NSCLC
[54] = tested on: MCF7 breast
[55] = tested on: K-562 leukemia
[56] = tested on: A498 renal
[57] = tested on: DU-145 prostate
[58] = tested on: OVCAR-5 ovarian

**Q.** `C=C(C)C(=O)O[C@H]1C[C@@]2(C)OC(=CC2=O)/C(C)=C\[C@H]2OC(=O)C(=C)[C@H]12` was tested. Which GI50 [1] did it give?
**A.** 1010 nM

**Q.** And the TGI [1]?
**A.** 3520 nM

**Q.** What about the GI50 [2] of the same compound?
**A.** 8210 nM

**Q.** What about the TGI [2] of the same compound?
**A.** > 33200 nM

**Q.** And the GI50 [3]?
**A.** 3300 nM

**Q.** And the TGI [3]?
**A.** 8150 nM

**Q.** What about the GI50 [4] of the same compound?
**A.** 560 nM

**Q.** And the TGI [4]?
**A.** 1240 nM

**Q.** What about the GI50 [5] of the same compound?
**A.** 957 nM

**Q.** And the TGI [5]?
**A.** 3290 nM

**Q.** What about the GI50 [6] of the same compound?
**A.** 913 nM

**Q.** What about the TGI [6] of the same compound?
**A.** 2450 nM

**Q.** And the GI50 [7]?
**A.** 1380 nM

**Q.** What about the TGI [7] of the same compound?
**A.** 6360 nM

**Q.** And the GI50 [8]?
**A.** 717 nM

**Q.** What about the TGI [8] of the same compound?
**A.** 1780 nM

**Q.** What about the GI50 [9] of the same compound?
**A.** 2010 nM

**Q.** What about the TGI [9] of the same compound?
**A.** 7630 nM

**Q.** And the GI50 [10]?
**A.** 762 nM

**Q.** What about the TGI [10] of the same compound?
**A.** 1990 nM

**Q.** What about the GI50 [11] of the same compound?
**A.** 927 nM

**Q.** And the TGI [11]?
**A.** 3030 nM

**Q.** What about the GI50 [12] of the same compound?
**A.** 5010 nM

**Q.** And the TGI [12]?
**A.** > 33200 nM

**Q.** And the GI50 [13]?
**A.** 1750 nM

**Q.** What about the TGI [13] of the same compound?
**A.** 7160 nM

**Q.** And the GI50 [14]?
**A.** 1110 nM

**Q.** And the TGI [14]?
**A.** > 33200 nM

**Q.** What about the GI50 [15] of the same compound?
**A.** 795 nM

**Q.** And the TGI [15]?
**A.** 3290 nM

**Q.** What about the GI50 [16] of the same compound?
**A.** 601 nM

**Q.** And the TGI [16]?
**A.** 1190 nM

**Q.** And the GI50 [17]?
**A.** 10700 nM

**Q.** And the TGI [17]?
**A.** > 33200 nM

**Q.** What about the GI50 [18] of the same compound?
**A.** 530 nM

**Q.** And the TGI [18]?
**A.** 1210 nM

**Q.** And the GI50 [19]?
**A.** 8470 nM

**Q.** What about the TGI [19] of the same compound?
**A.** > 33200 nM

**Q.** And the GI50 [20]?
**A.** 1540 nM

**Q.** What about the TGI [20] of the same compound?
**A.** 8320 nM

**Q.** What about the GI50 [21] of the same compound?
**A.** 3670 nM

**Q.** And the TGI [21]?
**A.** 13600 nM

**Q.** What about the GI50 [22] of the same compound?
**A.** 461 nM

**Q.** And the TGI [22]?
**A.** 1040 nM

**Q.** And the GI50 [23]?
**A.** 625 nM

**Q.** And the TGI [23]?
**A.** 1600 nM

**Q.** What about the GI50 [24] of the same compound?
**A.** 928 nM

**Q.** What about the TGI [24] of the same compound?
**A.** 3120 nM

**Q.** And the GI50 [25]?
**A.** 734 nM

**Q.** And the TGI [25]?
**A.** 6300 nM

**Q.** And the GI50 [26]?
**A.** 859 nM

**Q.** And the TGI [26]?
**A.** 2060 nM

**Q.** What about the GI50 [27] of the same compound?
**A.** 863 nM

**Q.** And the TGI [27]?
**A.** 2920 nM

**Q.** What about the GI50 [28] of the same compound?
**A.** 930 nM

**Q.** And the TGI [28]?
**A.** 4250 nM

**Q.** And the GI50 [29]?
**A.** 6500 nM

**Q.** What about the TGI [29] of the same compound?
**A.** 24600 nM

**Q.** And the GI50 [30]?
**A.** 666 nM

**Q.** And the TGI [30]?
**A.** 1500 nM

**Q.** And the GI50 [31]?
**A.** 3840 nM

**Q.** What about the TGI [31] of the same compound?
**A.** 8870 nM

**Q.** And the GI50 [32]?
**A.** 788 nM

**Q.** What about the TGI [32] of the same compound?
**A.** 1960 nM

**Q.** And the GI50 [33]?
**A.** 1180 nM

**Q.** And the TGI [33]?
**A.** 4640 nM

**Q.** And the GI50 [34]?
**A.** 790 nM

**Q.** And the TGI [34]?
**A.** 2370 nM

**Q.** And the GI50 [35]?
**A.** 1300 nM

**Q.** And the TGI [35]?
**A.** 11000 nM

**Q.** What about the GI50 [36] of the same compound?
**A.** 660 nM

**Q.** And the TGI [36]?
**A.** 1500 nM

**Q.** What about the GI50 [37] of the same compound?
**A.** 705 nM

**Q.** What about the TGI [37] of the same compound?
**A.** 1720 nM

**Q.** And the GI50 [38]?
**A.** 1990 nM

**Q.** What about the TGI [38] of the same compound?
**A.** > 16700 nM

**Q.** What about the GI50 [39] of the same compound?
**A.** 601 nM

**Q.** What about the TGI [39] of the same compound?
**A.** 1340 nM

**Q.** And the GI50 [40]?
**A.** 1950 nM

**Q.** And the TGI [40]?
**A.** 6230 nM

**Q.** And the GI50 [41]?
**A.** 675 nM

**Q.** And the TGI [41]?
**A.** 1800 nM

**Q.** And the GI50 [42]?
**A.** 1150 nM

**Q.** And the TGI [42]?
**A.** 16400 nM

**Q.** What about the GI50 [43] of the same compound?
**A.** 1400 nM

**Q.** And the TGI [43]?
**A.** 6020 nM

**Q.** And the GI50 [44]?
**A.** 1230 nM

**Q.** And the TGI [44]?
**A.** > 33200 nM

**Q.** What about the GI50 [45] of the same compound?
**A.** 1070 nM

**Q.** What about the TGI [45] of the same compound?
**A.** 4780 nM

**Q.** And the GI50 [46]?
**A.** 661 nM

**Q.** What about the TGI [46] of the same compound?
**A.** 3800 nM

**Q.** What about the GI50 [47] of the same compound?
**A.** 1060 nM

**Q.** What about the TGI [47] of the same compound?
**A.** 3400 nM

**Q.** And the GI50 [48]?
**A.** 554 nM

**Q.** And the TGI [48]?
**A.** 1260 nM

**Q.** What about the GI50 [49] of the same compound?
**A.** 1310 nM

**Q.** And the TGI [49]?
**A.** 12200 nM

**Q.** And the GI50 [50]?
**A.** 5820 nM

**Q.** And the TGI [50]?
**A.** 18500 nM

**Q.** And the GI50 [51]?
**A.** 11100 nM

**Q.** What about the TGI [51] of the same compound?
**A.** > 33200 nM

**Q.** And the GI50 [52]?
**A.** 872 nM

**Q.** What about the TGI [52] of the same compound?
**A.** 2280 nM

**Q.** And the GI50 [53]?
**A.** 1040 nM

**Q.** What about the TGI [53] of the same compound?
**A.** 2990 nM

**Q.** And the GI50 [54]?
**A.** 1000 nM

**Q.** What about the TGI [54] of the same compound?
**A.** 5330 nM

**Q.** And the GI50 [55]?
**A.** 1150 nM

**Q.** And the TGI [55]?
**A.** > 33200 nM

**Q.** What about the GI50 [56] of the same compound?
**A.** 7420 nM

**Q.** What about the TGI [56] of the same compound?
**A.** 16500 nM

**Q.** What about the GI50 [57] of the same compound?
**A.** 968 nM

**Q.** What about the TGI [57] of the same compound?
**A.** 4180 nM

**Q.** What about the GI50 [58] of the same compound?
**A.** 1030 nM

**Q.** What about the TGI [58] of the same compound?
**A.** 3210 nM

Source: PubChem BioAssay (NCI)
